We go through three molecules from paper PMC12152883, “Bile acids inhibit equilibrative adenosine transport to alter adenosine receptor signaling in cholestasis” (The Journal of Biological Chemistry, 2025).

Where “and” joins values, the source holds several entries; their conditions need not be identical. Equal entries are not always repeated.

Type in all cases: cell-based
The target of one assay is T1, ENT2 (Homo sapiens, UniProt Q14542).
T1 sequence (Q14542 1-456): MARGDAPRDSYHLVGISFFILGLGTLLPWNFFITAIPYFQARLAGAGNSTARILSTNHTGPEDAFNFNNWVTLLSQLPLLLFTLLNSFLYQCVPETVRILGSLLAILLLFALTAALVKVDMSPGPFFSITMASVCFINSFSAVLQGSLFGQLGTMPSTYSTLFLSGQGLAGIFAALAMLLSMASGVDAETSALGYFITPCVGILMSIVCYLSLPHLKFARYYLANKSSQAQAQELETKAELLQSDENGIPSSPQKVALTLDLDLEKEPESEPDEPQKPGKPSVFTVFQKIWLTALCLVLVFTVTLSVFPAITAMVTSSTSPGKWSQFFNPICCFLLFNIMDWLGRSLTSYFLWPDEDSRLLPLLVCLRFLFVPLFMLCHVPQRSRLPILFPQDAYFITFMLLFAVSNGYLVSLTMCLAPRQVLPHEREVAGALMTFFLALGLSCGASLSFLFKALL
As to the kind of experiment: Radiolabeled BA transport in ENT2 mRNA-injected Xenopus oocytes. On the set-up: expressed in transfected cells; host or cells: Xenopus laevis oocytes injected with in vitro-transcribed capped mRNA from pOX-hENT2. Particulars: for fold increased transport activity compared with H2O-injected oocytes: 3H-labelled BA, Na+-containing buffer, pH 7.4. The procedure:
(§1) We used a Xenopus oocyte-based transport assay that was previously used to examine BA transport by plasma membrane–directed ENT3 with a truncated N-terminus (that harbors lysosomal targeting motif) to experimentally verify whether ENT2 is capable of translocating BAs across the cell membrane ([24]). We tested both ENT1 and ENT2 along with CNT2, a purine nucleoside-specific concentrative transporter, to investigate their capacities to transport radiolabeled BAs. […] Transport was measured at pH 7.4, which is the closest pH to the pH of the extracellular fluid in which cells are exposed to solutes such as BAs to conduct plasma membrane transport ([29]).
(§2) The generated pOX expression constructs were linearized with either the Not1 or Sac1 restriction enzymes. The digested products were purified via phenol‒chloroform extraction. The mRNAs were synthesized using mMESSAGE mMACHINE (Ambion) transcription kits according to the manufacturer’s instructions. The mRNAs were purified via lithium precipitation. Oocytes were procured from Ecocyte. Prior to experiments, procured oocytes were defolliculated by treating with collagenase A-OR II solution followed by washing with Barth’s solution. Following microscopic verification, selected oocytes were incubated to recover overnight at 25 °C in a shaker incubator. Fifty nanoliters (400–800 ng/μl) of equal amounts of mRNAs were injected into defolliculated oocytes the next day. Expression of plasmids was analyzed after RNA isolation from oocyte extracts and conducting qPCR analysis with gene-specific primers as described earlier ([30]). The injected oocytes were incubated at 15 °C for 24 h before transport assays were performed. The uptake of radiolabeled substrates was measured after a 30 min incubation in transport buffer (100 mM NaCl, 2 mM KCl, 1 mM CaCl2, 1 mM MgCl2, and 10 mM Hepes, pH 7.4) at room temperature. Uptake was terminated by washing the oocytes three times with arrest buffer containing 20 mM uridine. Individual oocytes were shaken overnight in 10% SDS for complete dissolution, and then the radioactivity was quantified with a Beckman liquid scintillation counter. The data are presented as the mean ± SD (n = 8–12 oocytes). A representative experiment from 3 to 5 independent experiments is presented.

The subject of the next assay is HeLa cell line. As to the kind of experiment: 3H-nucleoside uptake inhibition by BAs in HeLa cell line. Particulars: BA 100 μM; for % Inhibition of Ado uptake, HeLa cell line, Sodium buffer / % Inhibition of Ado uptake, HeLa cell line, Sodium-free buffer: 3H-Ado 0.02 μM; for extent of inhibition of guanosine transport, HeLa cells: 3H-guanosine 0.02 μM, Na+-free. The protocol:
The bars represent the mean ± SD (n = 3). A representative experiment from 3 to 5 independent experiments is presented. Statistical analysis was performed using one-way ANOVA with Dunnett’s multiple comparisons test; ∗p < 0.032, ∗∗p < 0.0021, ∗∗∗p < 0.0002.
HeLa (CCL-2) and HepG2 (HB_8065) were procured from ATCC. Both cell lines were cultured in Eagle's minimum essential medium and Dulbecco's modified Eagle's medium, respectively, supplemented with 10% fetal bovine serum and penicillin-streptomycin (1X). After cells were tested free for mycoplasma contamination, they were plated in 24-well plates, and transport assays were conducted when the cells were 80% confluent. The cells were briefly rinsed with PBS, and then the uptake of radiolabeled substrates was measured after a 5 min incubation in sodium containing (130 mM NaCl, 20 mM Tris–HCl, 3 mM K2HPO4, 1 mM MgCl2.6H2O, 2 mM CaCl2, 5 mM glucose, pH 7.4) or sodium-free (130 mM N-methyl-D-glucamin, 20 mM Tris–HCl, 3 mM K2HPO4, 1 mM MgCl2.6H2O, 2 mM CaCl2, 5 mM glucose, pH 7.4) transport buffers at 37 °C. Uptake was terminated by washing the cells three times with ice-cold arrest buffer containing 20 mM uridine. The cells were shaken for 30 min in 10% SDS for complete dissolution, after which the radioactivity was quantified with a Beckman liquid scintillation counter. The data are presented as the mean ± SD (n = 3).

For another assay, the target named is T2, ENT1 (Homo sapiens, UniProt Q99808).
T2 construct: The complete ORF of ENT1 (amplified using forward primer); expressed in transfected cells; host or cells: Xenopus laevis oocytes injected with in vitro-transcribed capped mRNA from pOX-hENT1
T2 sequence (Q99808 1-456): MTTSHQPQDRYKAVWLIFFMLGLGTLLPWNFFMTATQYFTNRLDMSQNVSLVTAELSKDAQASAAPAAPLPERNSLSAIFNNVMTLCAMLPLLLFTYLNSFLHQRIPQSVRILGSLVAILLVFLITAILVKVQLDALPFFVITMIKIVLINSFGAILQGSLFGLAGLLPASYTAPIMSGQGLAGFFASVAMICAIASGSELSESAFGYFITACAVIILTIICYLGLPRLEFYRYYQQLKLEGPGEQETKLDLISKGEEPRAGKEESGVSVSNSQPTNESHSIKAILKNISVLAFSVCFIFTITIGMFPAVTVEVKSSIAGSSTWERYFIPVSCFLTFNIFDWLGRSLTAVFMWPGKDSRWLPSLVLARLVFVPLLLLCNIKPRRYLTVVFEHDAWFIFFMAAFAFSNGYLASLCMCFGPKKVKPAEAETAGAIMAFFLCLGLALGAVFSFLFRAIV
As to the kind of experiment: Radiolabeled BA transport in ENT1 mRNA-injected Xenopus oocytes. Particulars: 3H-labelled BA, Na+-containing buffer, pH 7.4. The procedure:
as §1
as §2, with “Uptake was terminated by washing the oocytes three times with arrest buffer containing 20 mM uridine.” left out, “The data are presented as the mean ± SD (n = 8–12 oocytes). A representative experiment from 3 to 5 independent experiments is presented.” left out

As usually defined, the Km is the substrate concentration at which the rate is half of its maximum.

`C[C@H](CCC(=O)O)[C@H]1CC[C@H]2[C@@H]3[C@H](O)C[C@@H]4C[C@H](O)CC[C@]4(C)[C@H]3C[C@H](O)[C@]12C` [CA, cholic acid]: on ENT2 (oocytes, Fig. 2B), the Km is approximately 195 µM and the “Vmax of BA transport by ENT2” value is listed as 2.84 pmol/oocyte∗30 min. For the same molecule, the “pH dependence of 3H-CA transport mediated by ENT2” value on ENT2 (pH 5.5 to pH 7.4) is reported as “not dependent on pH”. For the same molecule, in the assay on HeLa cell line, the “% Inhibition of Ado uptake, HeLa cell line, Sodium buffer” value (“% Inhibition … Sodium buffer” below) is listed as 52.17 ± 0.51%; the “% Inhibition of Ado uptake, HeLa cell line, Sodium-free buffer” value (from here on “% Inhibition … Sodium-free buffer”) was 48.8% and 48.78 ± 0.52%; the “extent of inhibition of guanosine transport, HeLa cells” value (“extent of inhibition … HeLa cells” below) was 16.1%. For the same molecule, at ENT1, the “transport of BA by ENT1” value is reported as “incapable of transporting”.
With `C[C@H](CCC(=O)O)[C@H]1CC[C@H]2[C@@H]3CC[C@@H]4C[C@H](O)CC[C@]4(C)[C@H]3C[C@H](O)[C@]12C` [DCA, deoxycholic acid], the “fold increased transport activity compared with H2O-injected oocytes” value at ENT2 came out at 1.78 fold. In addition, the “Vmax of BA transport by ENT2” value at ENT2 (oocytes, Fig. 2B) turned out to be 3.359 pmol/oocyte∗30 min. Further, in the assay with HeLa cell line, the “% Inhibition … Sodium buffer” value stood at 41.33 ± 0.10%; the “% Inhibition … Sodium-free buffer” value came out at 67.86 ± 1.67%; the “extent of inhibition … HeLa cells” value was 0%. Besides, at ENT1, the “transport of BA by ENT1” value is given as “incapable of transporting”.
In the case of `C[C@H](CCC(=O)NCCS(=O)(=O)O)[C@H]1CC[C@H]2[C@@H]3[C@H](O)C[C@@H]4C[C@H](O)CC[C@]4(C)[C@H]3C[C@H](O)[C@]12C` [TCA, taurocholic acid], the “fold increased transport activity compared with H2O-injected oocytes” value at ENT2 turned out to be 2.23 fold. Moreover, in the assay on HeLa cell line, the “% Inhibition … Sodium buffer” value was 59.20 ± 0.31%; the “% Inhibition … Sodium-free buffer” value came out at 67.21 ± 0.08%; the “extent of inhibition … HeLa cells” value was found to be 0%. In addition, the “transport of BA by ENT1” value at ENT1 was “incapable of transporting”.
